Results taken from ChEMBL document CHEMBL4177666, “Compound design guidelines for evading the efflux and permeation barriers of Escherichia coli with the oxazolidinone class of antibacterials: Test case for a general approach to improving whole cell Gram-negative activity” (Bioorg Med Chem Lett, 2017).
Converted amounts (≈) assume the structure as drawn.

Key:
Type in all cases: functional
Escherichia coli [1] = assay: Antibacterial activity against gram-negative wild type Escherichia coli MG1655 by CLSI broth microdilution method
Staphylococcus aureus = assay: Antibacterial activity against methicillin-susceptible Staphylococcus aureus ATCC 29213 by CLSI broth microdilution method
Escherichia coli [2] = assay: Antibacterial activity against gram-negative Escherichia coli MG1655 expressing AcrAB-TolC efflux pump deletion mutant by CLSI broth microdilution method
Escherichia coli [3] = assay: Efflux index, ratio of MIC for wild type Escherichia coli MG1655 to MIC for Escherichia coli MG1655 expressing AcrAB-TolC efflux pump deletion mutant
Escherichia coli [4] = assay: Antibacterial activity against gram-negative Escherichia coli MG1655 membrane permeabilized mutant in presence of polymyxinnonapeptide by CLSI broth microdilution method
Escherichia coli [5] = assay: Permeability index, ratio of MIC for wild type Escherichia coli MG1655 to MIC for Escherichia coli MG1655 membrane permeabilized mutant in presence of polymyxinnonapeptide
Bacterial 70S ribosome = assay: Inhibition of protein synthesis in Escherichia coli ribosomes incubated for 1 hr at 37 degC by SDS-PAGE and Gaussia luciferase reporter gene assay

| Structure (SMILES) | MIC (Escherichia coli [1]) [mg/L] | MIC (Staphylococcus aureus) [mg/L] | MIC (Escherichia coli [2]) [mg/L] | Ratio (Escherichia coli [3]) | MIC (Escherichia coli [4]) [mg/L] | Ratio (Escherichia coli [5]) | IC50 (Bacterial 70S ribosome) [µM] |
| --- | --- | --- | --- | --- | --- | --- | --- |
| NCc1ccc(-c2ccc(N3C[C@H](CO)OC3=O)cc2O)cc1 | > 256 | > 64 | – | – | – | – | – |
| CCOc1cn(C[C@H]2CN(c3ccc(-c4ccc(CN)cc4)c(F)c3)C(=O)O2)nn1 | > 64 | 16 (≈ 38.9 µM) | 32 (≈ 77.8 µM) | >4 | – | – | – |
| O=C(O)c1ccc(N2C[C@H](CO)OC2=O)cc1F | > 256 | > 64 | – | – | – | – | – |
| N#Cc1cc(O)cc(-c2ccc(N3C[C@H](Cn4ccnn4)OC3=O)cc2F)c1 | > 256 | 8 (≈ 21.1 µM) | 64 (≈ 169 µM) | >4 | 128 | >2 | – |
| NC[C@H]1CN(c2ccc(N3CCOCC3)c(F)c2)C(=O)O1 | > 256 | > 64 | – | – | – | – | – |
| NCc1ccc(-c2ccc(N3C[C@H](CN4C(=O)CNC4=O)OC3=O)cc2F)cc1 | > 256 | > 64 | – | – | – | – | – |
| COc1ccccc1-c1ccc(N2C[C@H](CO)OC2=O)cc1 | > 64 | 64 (≈ 214 µM) | – | – | – | – | – |
| NCc1ccc(-c2ccc(N3C[C@H](CO)OC3=O)cc2F)cc1O | – | – | – | 10.2 | – | 2.6 | – |
| O=C1O[C@@H](CO)CN1c1ccc(-c2ccc(N3C[C@@H](CO)OC3=O)nc2)c(F)c1 | > 128 | 32 (≈ 79.3 µM) | – | – | – | – | – |
| NCc1ccc(-c2ccc(N3C[C@H](Cn4nc[nH]c4=O)OC3=O)cc2F)cc1 | > 64 | 32 (≈ 83.5 µM) | – | – | – | – | – |
| CC(=O)NC[C@H]1CN(c2ccc(-c3cnc(C#N)c(O)c3)c(F)c2)C(=O)O1 | > 256 | 32 (≈ 86.4 µM) | 128 (≈ 346 µM) | >2 | – | – | – |
| N/C(=N\O)c1ccc(-c2ccc(N3C[C@H](CO)OC3=O)cc2F)cn1 | > 256 | 1 (≈ 2.89 µM) | 16 (≈ 46.2 µM) | >16 | 16 | >16 | – |
| NCc1ccc(-c2ccc(N3C[C@H](CN4CCOC4=O)OC3=O)cc2F)cc1 | > 256 | 16 (≈ 41.5 µM) | 256 (≈ 664 µM) | >=2 | – | – | – |
| O=C1O[C@@H](CO)CN1c1ccc(O)c(F)c1 | > 256 | > 64 | – | – | – | – | – |
| CC(=O)NC[C@H]1CN(c2ccc(-c3ccc(CN)cc3)c(F)c2)C(=O)O1 | 64 (≈ 179 µM) | 2 (≈ 5.6 µM) | 8 (≈ 22.4 µM) | 8 | 32 | 2 | – |
| NCc1ccc(-c2ccc(N3C[C@H](C(=O)O)OC3=O)cc2F)cc1 | > 256 | > 64 | – | – | – | – | – |
| N#Cc1ccc(-c2ccc(N3C[C@H](CO)OC3=O)nc2)cc1O | > 256 | > 64 | – | – | – | – | – |
| CC(=O)NC[C@H]1CN(c2ccc(-c3ccc(CN)c(O)c3)c(F)c2)C(=O)O1 | 128 (≈ 343 µM) | 4 (≈ 10.7 µM) | 8 (≈ 21.4 µM) | 16 | 64 | 2 | – |
| NC(/C=C/c1ccc(N2C[C@H](CO)OC2=O)cc1F)=N\O | > 128 | > 64 | – | – | – | – | – |

| Structure (SMILES) | MIC (Escherichia coli [1]) [mg/L] | MIC (Staphylococcus aureus) [mg/L] | MIC (Escherichia coli [2]) [mg/L] | Ratio (Escherichia coli [3]) | MIC (Escherichia coli [4]) [mg/L] | Ratio (Escherichia coli [5]) | IC50 (Bacterial 70S ribosome) [µM] |
| --- | --- | --- | --- | --- | --- | --- | --- |
| CCOc1cnnn1C[C@H]1CN(c2ccc(-c3ccc(CN)cc3)c(F)c2)C(=O)O1 | > 256 | 32 (≈ 77.8 µM) | 128 (≈ 311 µM) | >2 | 256 | >1 | – |
| NC[C@H]1CN(c2ccc(-c3ccc(F)c(O)c3)c(F)c2)C(=O)O1 | 256 (≈ 799 µM) | 64 (≈ 200 µM) | 256 (≈ 799 µM) | 1 | 256 | 1 | – |
| NCc1ncc(-c2ccc(N3C[C@H](CO)OC3=O)cc2F)cc1O | 51 (≈ 153 µM) | 20 (≈ 60 µM) | – | 1.6 | – | 1.6 | 192 |
| CC(=O)NC[C@H]1CN(c2ccc(N3CCOCC3)c(F)c2)C(=O)O1 [LINEZOLID] | 130 (≈ 385 µM) | 3.1 (≈ 9.19 µM) | 11 (≈ 32.6 µM) | 12 | 36 | 3.6 | 23.7 |
| NCc1ccc(-c2ccc(N3C[C@H](Cn4nncc4CO)OC3=O)cc2F)cc1 | > 256 | > 64 | – | – | – | – | – |
| CC(=O)NC[C@H]1CN(c2ccc(-c3ccc(C#N)c(O)c3)c(F)c2)C(=O)O1 | > 256 | 2 (≈ 5.41 µM) | 32 (≈ 86.6 µM) | >8 | 32 | >8 | – |
| O=C1O[C@@H](CO)CN1c1ccc(-c2ccc([N+](=O)[O-])c(O)c2)c(F)c1 | – | – | – | 1 | – | 1 | – |
| NCc1ccc(-c2ccc(N3C[C@H](Cn4nncc4O)OC3=O)cc2F)cc1 | > 64 | > 64 | – | – | – | – | – |
| NCc1ccc(-c2ccc(N3C[C@H](Cn4cc(CN)nn4)OC3=O)cc2F)cc1 | > 256 | 8 (≈ 20.2 µM) | 128 (≈ 323 µM) | >2 | 128 | >2 | – |
| CC(=O)NC[C@H]1CN(c2ccc(-c3ccc(F)c(O)c3)c(F)c2)C(=O)O1 | > 256 | 2 (≈ 5.52 µM) | 8 (≈ 22.1 µM) | >32 | 16 | >16 | – |
| O=C1O[C@@H](CO)CN1c1ccc(-c2ccc(F)c(O)c2)[n+]([O-])c1 | > 256 | 64 (≈ 200 µM) | – | – | – | – | – |
| NCc1ccc(-c2ccc(N3C[C@H](C(N)=O)OC3=O)cc2F)cc1 | > 256 | > 64 | – | – | – | – | – |
| O=C1O[C@@H](CO)CN1c1ccc(-c2cc(O)ccc2F)cc1 | > 256 | 1 (≈ 3.3 µM) | 16 (≈ 52.8 µM) | >16 | 32 | >8 | – |
| O=C1O[C@@H](CNC(=O)C(F)(F)F)CN1c1ccc(-c2ccc(F)c(O)c2)c(F)c1 | > 256 | 32 (≈ 76.9 µM) | 256 (≈ 615 µM) | >2 | 256 | >2 | – |
| N/C(=N\O)c1ccc(-c2ccc(N3C[C@H](CNC(=O)C(F)(F)F)OC3=O)cc2F)cc1 | > 256 | < 0.5 | < 2 | >256 | 16 | >16 | – |
| O=C(NC[C@H]1CN(c2ccc(-c3ccc(F)c(O)c3)c(F)c2)C(=O)O1)C(F)F | > 32 | 1 (≈ 2.51 µM) | 4 (≈ 10 µM) | >8 | 8 | >4 | – |
| N#Cc1ccc(-c2ccc(N3C[C@H](CN)OC3=O)cc2F)cc1O | > 256 | 64 (≈ 196 µM) | – | – | – | – | – |
| NCc1ccc(-c2ccc(N3C[C@H](CNC(=O)C(F)(F)F)OC3=O)cc2F)cc1 | 64 (≈ 156 µM) | 2 (≈ 4.86 µM) | 2 (≈ 4.86 µM) | 32 | 11 | 6 | – |
| COc1ccc(N2C[C@H](CO)OC2=O)cc1O | > 256 | > 64 | – | – | – | – | – |

| Structure (SMILES) | MIC (Escherichia coli [1]) [mg/L] | MIC (Staphylococcus aureus) [mg/L] | MIC (Escherichia coli [2]) [mg/L] | Ratio (Escherichia coli [3]) | MIC (Escherichia coli [4]) [mg/L] | Ratio (Escherichia coli [5]) | IC50 (Bacterial 70S ribosome) [µM] |
| --- | --- | --- | --- | --- | --- | --- | --- |
| N/C(=N\O)c1ccc(-c2ccc(N3C[C@H](CNC(=O)C(F)(F)F)OC3=O)cc2F)cc1O | > 256 | > 64 | – | – | – | – | – |
| COc1cc(N2C[C@H](CO)OC2=O)ccc1-c1ccc(CN)cc1 | > 256 | > 64 | – | – | – | – | – |
| NCc1ccc(-c2ccc(N3C[C@H](Cn4cc(C(=O)O)nn4)OC3=O)cc2F)cc1 | > 256 | > 64 | – | – | – | – | – |
| O=C1CCc2cc(-c3ccc(N4C[C@H](CO)OC4=O)cc3F)cc(O)c21 | > 256 | 1 (≈ 2.8 µM) | 8 (≈ 22.4 µM) | 8 | 64 | >32 | – |
| NCc1ccc(-c2ccc(N3C[C@H](Cn4cc(O)nn4)OC3=O)cc2F)cc1 | > 64 | 8 (≈ 20.9 µM) | 32 (≈ 83.5 µM) | >2 | – | – | – |
| Nc1cc(-c2ccc(N3C[C@H](CNC(=O)C(F)(F)F)OC3=O)cc2F)ccn1 | > 32 | 4 (≈ 10 µM) | 8 (≈ 20.1 µM) | >=8 | 16 | >=4 | – |
| O=C1O[C@@H](CO)CN1c1ccc(-c2ccccc2F)cc1 | > 64 | 4 (≈ 13.9 µM) | 8 (≈ 27.8 µM) | >8 | – | – | – |
| N#Cc1cc(O)cc(-c2ccc(N3C[C@H](Cn4nccn4)OC3=O)cc2F)c1 | > 256 | 32 (≈ 84.4 µM) | 64 (≈ 169 µM) | >4 | 64 | >4 | – |
| N/C(=N\O)c1ccc(-c2ccc(N3C[C@H](CO)OC3=O)cc2F)cc1O | – | – | – | 1 | – | 2 | – |
| NCc1ccc(-c2ccc(N3C[C@H](Cn4nncc4C(=O)O)OC3=O)cc2F)cc1 | > 128 | 16 (≈ 38.9 µM) | – | – | – | – | – |
| NCc1ccc(-c2ccc(N3C[C@H](Cn4cc(CO)nn4)OC3=O)cc2F)cc1 | 256 (≈ 644 µM) | 16 (≈ 40.3 µM) | 64 (≈ 161 µM) | – | 128 | 2 | – |
| NCCC#Cc1ccc(N2C[C@H](CO)OC2=O)cc1F | > 256 | > 64 | – | – | – | – | – |
| NCc1ccc(-c2ccc(N3C[C@H](CNC(=O)C(F)F)OC3=O)cc2F)cc1 | 128 (≈ 325 µM) | 2 (≈ 5.08 µM) | 4 (≈ 10.2 µM) | 32 | 32 | 4 | – |
| O=C1O[C@@H](CO)CN1c1ccc(O)cc1F | > 256 | > 64 | – | – | – | – | – |
| O=C1O[C@@H](CO)CN1c1ccc(-c2cc(O)c(F)cc2F)cc1 | > 256 | 4 (≈ 12.5 µM) | 32 (≈ 99.6 µM) | >8 | 64 | >4 | – |
| N/C(=N\O)c1ccc(-c2ccc(N3C[C@H](CO)OC3=O)cc2)cc1 | > 256 | 2 (≈ 6.11 µM) | 8 (≈ 24.4 µM) | >32 | 32 | >8 | – |
| NCc1cc(F)c(-c2ccc(N3C[C@H](CO)OC3=O)cc2F)cc1O | – | – | – | 1 | – | 2 | – |
| CC(=O)NC[C@H]1CN(c2ccc(-c3ccnc(N)c3)c(F)c2)C(=O)O1 | 128 (≈ 372 µM) | 2 (≈ 5.81 µM) | 8 (≈ 23.2 µM) | 16 | 32 | 4 | – |
